pIC50: −log10 of the molar value. Structures can show the parent of a compound that is named as a salt.
System: SARS-CoV-2
Assay: microbe, parasite or virus in culture
Conditions: Severe acute respiratory syndrome coronavirus 2, Vero C1008, 48 h; for IC50: read-out: pIC50 (converted)

| SMILES | pIC50 | IC50 |
| --- | --- | --- |
| Cc1cccc(OCC(O)CNC(C)C)c1 (configuration not stated) [TOLIPROLOL] | < 4.70 | > 20 µM |
| CC(C)CCCCCCCCCCCCCCC(=O)O | < 4.70 | > 20 µM |
| COc1c(N2CCC/C(=C(/F)CN)C2)c(F)cc2c(=O)c(C(=O)O)cn(C3CC3)c12 | < 4.70 | > 20 µM |
| COc1ccc([C@H](Cc2ccncc2)c2ccccc2)cc1OC1CCCC1 [CDP840] | < 4.70 | > 20 µM |
| CCCCCCCCCCCCCCCCCCCCCC(=O)O [BEHENIC ACID] | < 4.70 | > 20 µM |
| CN(C)CCCC1(c2ccc(F)cc2)OCc2cc(C#N)ccc21 (configuration not stated) [CITALOPRAM] | < 4.70 | > 20 µM |
| CCC1(CC)C(=O)NC(=S)NC1=O | < 4.70 | > 20 µM |
| Cc1ccc(O)c([C@H](CCN(C(C)C)C(C)C)c2ccccc2)c1 [TOLTERODINE] | < 4.70 | > 20 µM |
| O=C(O)CNC(=O)C(CS)Cc1ccccc1 (configuration not stated) [THIORPHAN] | < 4.70 | > 20 µM |
| N=C(N)c1ccc(OCCCCCOc2ccc(C(=N)N)cc2)cc1 [PENTAMIDINE] | < 4.70 | > 20 µM |
| CN(C)CCC(c1ccc(Br)cc1)c1ccccn1 (configuration not stated) [BROMPHENIRAMINE] | < 4.70 | > 20 µM |
| O=C(O)C1CC(O)CN1 (configuration not stated) | < 4.70 | > 20 µM |
| O=C(Nc1ccc(O)cc1)c1ccccc1O [OSALMID] | < 4.70 | > 20 µM |
| CN1CCN(c2nc(C3=C(c4c[nH]c5ccccc45)C(=O)NC3=O)c3ccccc3n2)CC1 [SOTRASTAURIN] | < 4.70 | > 20 µM |
| C[C@@H]1O[C@@H](O[C@@H]2C=C3CCC4C(CC[C@]5(C)[C@@H](c6ccc(=O)oc6)CC[C@]45O)[C@@]3(C)CC2)[C@H](O)[C@H](O)[C@H]1O (some centres not stated) | < 4.70 | > 20 µM |
| C[C@H]1CN([C@H]2CC[C@](C#N)(c3ccc(F)cc3)CC2)CC[C@]1(C(=O)O)c1ccccc1 | < 4.70 | > 20 µM |
| Oc1ccc(/C=C/c2cc(O)cc(O)c2)cc1 [RESVERATROL] | < 4.70 | > 20 µM |
| COc1ccc(Cl)cc1NC(=O)Cc1ccc(S(=O)(=O)Nc2ncc(CC(C)C)cn2)cc1 | < 4.70 | > 20 µM |
| NCC(O)c1cccc(O)c1 (configuration not stated) [NORFENEFRINE] | < 4.70 | > 20 µM |
| COc1cc2ccc(=O)oc2cc1O [SCOPOLETIN] | < 4.70 | > 20 µM |
| Oc1ccc(Cl)cc1Sc1cc(Cl)ccc1O [FENTICLOR] | < 4.70 | > 20 µM |
| CN(C)CCCOc1nn(Cc2ccccc2)c2ccccc12 [BENZYDAMINE] | < 4.70 | > 20 µM |

| SMILES | pIC50 | IC50 |
| --- | --- | --- |
| CC(C)[N@+]1(C)C2CC[C@H]1C[C@@H](OC(=O)C(CO)c1ccccc1)C2 (some centres not stated) | < 4.70 | > 20 µM |
| O=S(=O)(O)CCN1CCN(CCO)CC1 | < 4.70 | > 20 µM |
| C[C@@H]1CCC[C@H](C)N1 | < 4.70 | > 20 µM |
| CN1CCc2cc(Cl)c(O)cc2[C@@H](c2ccccc2)C1 [SCH-23390] | < 4.70 | > 20 µM |
| CC(=O)[C@@]1(O)CC[C@H]2[C@@H]3C=C(Cl)C4=CC(=O)[C@@H]5C[C@@H]5[C@]4(C)[C@H]3CC[C@@]21C [CYPROTERONE] | < 4.70 | > 20 µM |
| C[C@H]1CCC[C@H](C)N1CCCCNC(=O)C(Oc1ccccc1)c1ccccc1 (some centres not stated) | < 4.70 | > 20 µM |
| C#C[C@]1(OC(C)=O)CC[C@H]2[C@@H]3CCC4=C[C@@H](OC(C)=O)CC[C@@H]4[C@H]3CC[C@@]21C [ETHYNODIOL DIACETATE] | < 4.70 | > 20 µM |
| Nc1ccc(/N=N/c2ccccc2)c(N)n1 [PHENAZOPYRIDINE] | < 4.70 | > 20 µM |
| CCOc1cc(-c2nccc3cc(OC)c(OC)cc23)cc(OCC)c1OCC [OCTAVERINE] | < 4.70 | > 20 µM |
| CC(=O)CCCCn1c(=O)c2c(ncn2C)n(C)c1=O [PENTOXIFYLLINE] | < 4.70 | > 20 µM |
| COC1CCC2(C)C(=CCC3C2CCC2(C)C(C(C)=O)CCC32)C1 (configuration not stated) | < 4.70 | > 20 µM |
| Nc1ncc(-c2ccncc2)nc1Nc1ccc2[nH]ccc2c1 [AKN-028] | < 4.70 | > 20 µM |
| CC(C)N(C(=O)CN1C(=O)[C@@H](NC(=O)Nc2cccc(C(=O)O)c2)C(=O)N(c2ccccc2)c2ccccc21)c1ccccc1 | < 4.70 | > 20 µM |
| CC12CCC(=O)C=C1CCC1C2CCC2(C)C1CC[C@H]2O (some centres not stated) | < 4.70 | > 20 µM |
| COc1ccc(CCN)cc1OC | < 4.70 | > 20 µM |
| Cc1ccc(/C=C/C(=O)NCCCCN2CCN(C(c3ccccc3)c3ccccc3)CC2)cn1 [TAGORIZINE] | < 4.70 | > 20 µM |
| CC(CNS(=O)(=O)C(C)C)c1ccc(NC(=O)c2cc(F)cc(F)c2)cc1 (configuration not stated) | < 4.70 | > 20 µM |
| COC(=O)C(N)CS (configuration not stated) [MECYSTEINE] | < 4.70 | > 20 µM |
| COc1ccc(-c2ccc3ncc4c(c3c2)n(-c2ccc(N3CCNCC3)c(C(F)(F)F)c2)c(=O)n4C)cn1 [BGT-226 FREE BASE] | < 4.70 | > 20 µM |
| Cc1cccc(CN2CCN(C(c3ccccc3)c3ccc(Cl)cc3)CC2)c1 (configuration not stated) [MECLIZINE] | < 4.70 | > 20 µM |
| O=C(CCc1ccc(O)cc1)c1c(O)cc(O)cc1OC1OC(CO)C(O)C(O)C1O (configuration not stated) | < 4.70 | > 20 µM |
| O=C1Cc2cc(CCN3CCN(c4nsc5ccccc45)CC3)c(Cl)cc2N1 [ZIPRASIDONE] | < 4.70 | > 20 µM |

| SMILES | pIC50 | IC50 |
| --- | --- | --- |
| O=C1CN(/N=C/c2ccc([N+](=O)[O-])o2)C(=O)N1 [NITROFURANTOIN] | < 4.70 | > 20 µM |
| OB1OCc2cc(F)ccc21 [TAVABOROLE] | < 4.70 | > 20 µM |
| O=C(CCCN1CCC(C(=O)c2ccc(Cl)cc2)CC1)c1ccc(F)cc1 [CLOROPERONE] | < 4.70 | > 20 µM |
| CCC[C@@H]1C[C@@H](C(=O)N[C@@H](C(C)O)[C@H]2O[C@H](SC)[C@H](O)[C@@H](O)[C@H]2O)N(C)C1 (some centres not stated) | < 4.70 | > 20 µM |
| NC(=O)[C@@H](CCC(F)(F)F)N(Cc1ccc(-c2ncon2)cc1F)S(=O)(=O)c1ccc(Cl)cc1 | < 4.70 | > 20 µM |
| C=C1C(=O)OC2C[C@@]3(C)CCC[C@H](C)C3=CC12 (some centres not stated) | < 4.70 | > 20 µM |
| COc1ccn(C)c(=O)c1C#N [RICININE] | < 4.70 | > 20 µM |
| COc1cc2c3cc1Oc1cc(ccc1O)CC1c4c(cc(OC)c(O)c4Oc4ccc(cc4)CC3N(C)CC2)CC[N+]1(C)C (configuration not stated) | < 4.70 | > 20 µM |
| CC(=O)Nc1ccc(C(=O)NC(C)(C)C)cc1 [CP1-1189] | < 4.70 | > 20 µM |
| COc1cc2ncnc(Nc3cccc(Br)c3)c2cc1OC | < 4.70 | > 20 µM |
| COc1ccc(Cl)cc1C(=O)NCCc1ccc(S(=O)(=O)NC(=O)NC2CCCCC2)cc1 [GLYBURIDE] | < 4.70 | > 20 µM |
| CC(=C(CCO)SSCC1CCCO1)N(C=O)Cc1cnc(C)nc1N (configuration not stated) | < 4.70 | > 20 µM |
| O=S(=O)(O)NC1CCCCC1 [CYCLAMIC ACID] | < 4.70 | > 20 µM |
| CCCCOc1cc(C(=O)OCCN(CC)CC)ccc1N [BENOXINATE] | < 4.70 | > 20 µM |
| CN(C)[C@@H]1C(O)=C(C(N)=O)C(=O)[C@@]2(O)C(O)=C3C(=O)c4c(O)ccc(Cl)c4[C@@H](O)[C@H]3C[C@@H]12 [DEMECLOCYCLINE] | < 4.70 | > 20 µM |
| CCCN1C[C@H](CSC)C[C@@H]2c3cccc4[nH]cc(c34)C[C@H]21 [PERGOLIDE MESYLATE] | < 4.70 | > 20 µM |
| CC(=O)SCCC(=O)N1C(C)CCCC1C(=O)O (configuration not stated) | < 4.70 | > 20 µM |
| C[C@@H](N)C(=O)N[C@@H](Cc1ccccc1)C(=O)O | < 4.70 | > 20 µM |
| O=C(/C=C/c1c(C(=O)O)[nH]c2cc(Cl)cc(Cl)c12)Nc1ccccc1 | < 4.70 | > 20 µM |
| Cc1cc(C)c(CNC(=O)c2cc(Cl)c3c(c2C)OC(C)([C@H]2CC[C@H](N(C)C)CC2)O3)c(=O)[nH]1 (some centres not stated) | < 4.70 | > 20 µM |
| C[N+](C)(C)C[C@H](O)CC(=O)[O-] [LEVOCARNITINE] | < 4.70 | > 20 µM |
| CCCC(C)(COC(N)=O)COC(=O)NC(C)C (configuration not stated) [CARISOPRODOL] | < 4.70 | > 20 µM |

From ChEMBL document CHEMBL4651402, “Screening of ~5500 FDA-approved drugs and clinical candidates for anti-SARS-CoV-2 activity” (2021)
